Assay results reported in PMC11876601 (Molecular Systems Biology, 2025).
“And” between values parts separate entries of the source, which are not always exact repeats. Identical values can stand only once. Like-named read-outs stand apart in the source and are kept apart here.

Test system: AsPC-1 cells
Assay: Cell proliferation assay, chemodrug + ATR inhibitor (Incucyte confluence, 72 h);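 further: underlying read-out for every value is AsPC-1 confluence after 72 h incubation at 37 °C and 5% CO2, divided by that well's starting confluence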
Conditions: for EC50: Homo sapiens; for Ratio: Response / Response vehicle (mean)
[1] = AsPC-1, Experiment GEM (no ATRi), single replicates R1-R3, listed as 5-FU
[2] = AsPC-1, Experiment GEM+ATRi_dose1, single replicates R1-R3, listed as 5-FU
[3] = AsPC-1, Experiment GEM+ATRi_dose2, single replicates R1-R3, listed as 5-FU
[4] = AsPC-1, Experiment GEM+ATRi_dose3, single replicates R1-R3, listed as 5-FU
[5] = Drug 0 nM + ATRi 3 nM (ATRi alone, GEM+ATRi_dose1 series), replicates R1-R3, listed as 5-FU
[6] = Drug 0 nM + ATRi 10 nM (ATRi alone, GEM+ATRi_dose2 series), replicates R1-R3, listed as 5-FU
[7] = Drug 0 nM + ATRi 30 nM (ATRi alone, GEM+ATRi_dose3 series), replicates R1-R3, listed as 5-FU
[8] = Drug 1 nM + ATRi 3 nM (GEM+ATRi_dose1), replicates R1-R3, listed as 5-FU
[9] = Drug 1 nM + ATRi 10 nM (GEM+ATRi_dose2), replicates R1-R3, listed as 5-FU
[10] = Drug 1 nM + ATRi 30 nM (GEM+ATRi_dose3), replicates R1-R3, listed as 5-FU
[11] = Drug 3 nM + ATRi 3 nM (GEM+ATRi_dose1), replicates R1-R3, listed as 5-FU
[12] = Drug 3 nM + ATRi 30 nM (GEM+ATRi_dose3), replicates R1-R3, listed as 5-FU
[13] = Drug 3 nM alone, ATRi 0 nM (experiment 'GEM'), replicates R1-R3, listed as 5-FU
[14] = Drug 10 nM + ATRi 3 nM (GEM+ATRi_dose1), replicates R1-R3, listed as 5-FU
[15] = Drug 10 nM + ATRi 10 nM (GEM+ATRi_dose2), replicates R1-R3, listed as 5-FU
[16] = Drug 10 nM + ATRi 30 nM (GEM+ATRi_dose3), replicates R1-R3, listed as 5-FU
[17] = Drug 10 nM alone, ATRi 0 nM (experiment 'GEM'), replicates R1-R3, listed as 5-FU
[18] = Drug 30 nM + ATRi 3 nM (GEM+ATRi_dose1), replicates R1-R3, listed as 5-FU
[19] = Drug 30 nM + ATRi 10 nM (GEM+ATRi_dose2), replicates R1-R3, listed as 5-FU
[20] = Drug 30 nM + ATRi 30 nM (GEM+ATRi_dose3), replicates R1-R3, listed as 5-FU
[21] = Drug 100 nM + ATRi 3 nM (GEM+ATRi_dose1), replicates R1-R3
[22] = Drug 100 nM + ATRi 10 nM (GEM+ATRi_dose2), replicates R1-R3, listed as 5-FU
[23] = Drug 100 nM + ATRi 30 nM (GEM+ATRi_dose3), replicates R1-R3, listed as 5-FU
[24] = Drug 100 nM alone, ATRi 0 nM (experiment 'GEM'), replicates R1-R3, listed as 5-FU
[25] = Drug 300 nM + ATRi 3 nM (GEM+ATRi_dose1), replicates R1-R3
[26] = Drug 300 nM + ATRi 10 nM (GEM+ATRi_dose2), replicates R1-R3, listed as 5-FU
[27] = Drug 300 nM + ATRi 30 nM (GEM+ATRi_dose3), replicates R1-R3, listed as 5-FU
[28] = Drug 300 nM alone, ATRi 0 nM (experiment 'GEM'), replicates R1-R3, listed as 5-FU
[29] = Drug 1000 nM + ATRi 3 nM (GEM+ATRi_dose1), replicates R1-R3
[30] = Drug 1000 nM + ATRi 30 nM (GEM+ATRi_dose3), replicates R1-R3, listed as 5-FU
[31] = Drug 1000 nM alone, ATRi 0 nM (experiment 'GEM'), replicates R1-R3, listed as 5-FU
[32] = Drug 3000 nM + ATRi 3 nM (GEM+ATRi_dose1), replicates R1-R3
[33] = Drug 3000 nM + ATRi 10 nM (GEM+ATRi_dose2), replicates R1-R3, listed as 5-FU
[34] = Drug 3000 nM + ATRi 30 nM (GEM+ATRi_dose3), replicates R1-R3, listed as 5-FU
[35] = Drug 3000 nM alone, ATRi 0 nM (experiment 'GEM'), replicates R1-R3, listed as 5-FU
[36] = drug 100 nM + ATRi 3 nM, listed as 5-FU
[37] = drug 300 nM + ATRi 3 nM, listed as 5-FU
[38] = drug 1000 nM + ATRi 3 nM, listed as 5-FU
[39] = drug 3000 nM + ATRi 3 nM, listed as 5-FU

Procedure: Cells were seeded at 5000 cells/well into 96-well flat bottom plates (Eppendorf) and allowed to attach overnight. […] Cells were incubated for 72 h at 37 °C and 5% CO2. Cell confluence readouts at 72 h were either normalized to their initial confluence using the Incucyte software (AsPC-1) or used without prior normalization (all others). […] Each experiment was performed in triplicates, the data was plotted as mean ± standard deviation (s.d.).

EC50 (ASPC1, 72 h, AsPC-1, Experiment GEM (no ATRi), single replicates R1-R3): 1020 nM | EC50 (ASPC1, 72 h, read-out: EC50 mean [nM], AsPC-1, Experiment GEM (no ATRi), mean of R1-R3, repeated in each replicate line): 1190 nM | EC50 (ASPC1, 72 h, read-out: pEC50, AsPC-1 (converted), Experiment GEM (no ATRi), single replicates R1-R3): 1020 nM | EC50 (ASPC1, read-out: EC50 mean [nM], AsPC-1, Experiment GEM (no ATRi), mean of R1-R3, repeated in each replicate line): 1190 nM | EC50 (ASPC1, read-out: EC50 mean [nM], AsPC-1, Experiment GEM+ATRi_dose1, mean of R1-R3, repeated in each replicate line): 619 nM | EC50 (ASPC1, read-out: EC50 mean [nM], AsPC-1, Experiment GEM+ATRi_dose2, mean of R1-R3, repeated in each replicate line): 326 nM | EC50 (ASPC1, read-out: EC50 mean [nM], AsPC-1, Experiment GEM+ATRi_dose3, mean of R1-R3, repeated in each replicate line): 266 nM
SMILES: O=c1[nH]cc(F)c(=O)[nH]1 [5-fluorouracil]
Curve bottom [1]: 1.02 and 1.01 and 1.04 | Curve slope [1]: 1.53 and 1.20 and 1.02 | Curve top [1]: 0.52 and 0.45 and 0.53 | Curve bottom [2]: 1.03 and 1.04 | Curve slope [2]: 1.17 and 1.72 and 2.53 | Curve top [2]: 0.34 and 0.38 and 0.50 | Curve bottom (AsPC-1, Experiment GEM+ATRi_dose2, single replicates R1-R3): 1.02 | Curve slope [3]: 2.12 and 2.47 and 2.30 | Curve top [3]: 0.44 and 0.42 and 0.41 | Curve bottom [4]: 0.92 and 0.93 and 0.96 | Curve slope [4]: 7.78 and 7.99 and 4.74 | Curve top [4]: 0.42 and 0.41 | Response [5]: 93.23 and 93.25 | Response [6]: 93.23 and 93.25 | Response [7]: 86.00 and 86.93 | Response [8]: 93.84 and 90.46 | Response [9]: 92.14 and 89.28 | Response [10]: 85.34 and 86.33 | Response (Drug 1 nM alone, ATRi 0 nM (experiment 'GEM'), replicates R1-R3, listed as 5-FU): 94.45 | Response [11]: 93.43 and 94.40 | Response (Drug 3 nM + ATRi 10 nM (GEM+ATRi_dose2), replicates R1-R3, listed as 5-FU): 92.25 and 90.36 | Response [12]: 84.22 and 84.05 | Response [13]: 90.32 | Response [14]: 92.50 and 91.39 | Response [15]: 91.53 and 89.96 | Response [16]: 83.67 and 82.94 | Response [17]: 89.98 and 90.52 | Response [18]: 93.40 and 92.15 | Response [19]: 91.74 and 91.80 | Response [20]: 86.01 and 86.29 | Response (Drug 30 nM alone, ATRi 0 nM (experiment 'GEM'), replicates R1-R3, listed as 5-FU): 91.55 and 89.05 | Response [21]: 92.03 | Response [22]: 90.88 and 90.27 | Response [23]: 85.31 and 85.49 | Response [24]: 92.05 and 91.30 | Response [25]: 79.74 | Response [26]: 62.48 and 67.47 | Response [27]: 51.19 and 52.50 | Response [28]: 82.78 and 83.05 | Response [29]: 50.06 | Response (Drug 1000 nM + ATRi 10 nM (GEM+ATRi_dose2), replicates R1-R3, listed as 5-FU): 44.01 and 42.89 | Response [30]: 38.74 and 41.39 | Response [31]: 71.08 and 72.31 | Response [32]: 44.54 | Response [33]: 35.64 and 36.17 | Response [34]: 35.72 and 32.91 | Response [35]: 54.65 and 60.00 | Ratio [5]: 1.02 and 1.04 | Ratio [6]: 1.02 and 1.04 | Ratio [7]: 0.94 and 0.97 | Ratio [8]: 1.03 and 1.01 | Ratio [9]: 1.01 and 1.00 | Ratio [10]: 0.94 and 0.97 | Ratio (Drug 1 nM alone, ATRi 0 nM (experiment 'GEM'), replicates R1-R3): 1.04 | Ratio [11]: 1.03 and 1.06 | Ratio (Drug 3 nM + ATRi 10 nM (GEM+ATRi_dose2), replicates R1-R3): 1.01 | Ratio [12]: 0.92 and 0.94 | Ratio [13]: 0.99 and 1.05 | Ratio [14]: 1.01 and 1.02 | Ratio [15]: 1.00 and 1.01 | Ratio [16]: 0.92 and 0.93 | Ratio [17]: 0.99 and 1.01 | Ratio [18]: 1.02 and 1.03 | Ratio [19]: 1.01 and 1.03 | Ratio [20]: 0.94 and 0.97 | Ratio (Drug 30 nM alone, ATRi 0 nM (experiment 'GEM'), replicates R1-R3): 1.00 | Ratio [21]: 1.03 | Ratio [22]: 1.00 and 1.01 | Ratio [23]: 0.94 and 0.96 | Ratio [24]: 1.01 and 1.02 | Ratio [25]: 0.89 | Ratio [26]: 0.69 and 0.76 | Ratio [27]: 0.56 and 0.59 | Ratio [28]: 0.91 and 0.93 | Ratio [29]: 0.56 | Ratio (Drug 1000 nM + ATRi 10 nM (GEM+ATRi_dose2), replicates R1-R3): 0.48 | Ratio [30]: 0.43 and 0.46 | Ratio [31]: 0.78 and 0.81 | Ratio [32]: 0.50 | Ratio [33]: 0.39 and 0.41 | Ratio [34]: 0.39 and 0.37 | Ratio [35]: 0.60 and 0.67 | Ratio (drug 1 nM + ATRi 3 nM): 1.05 | Ratio (drug 1 nM + ATRi 10 nM): 1.03 | Ratio (drug 1 nM + ATRi 30 nM): 0.93 | Ratio (drug 1 nM alone (ATRi 0 nM)): 1.02 | Ratio (drug 3 nM + ATRi 3 nM): 1.01 | Ratio (drug 3 nM + ATRi 10 nM): 0.98 | Ratio (drug 3 nM + ATRi 30 nM): 0.92 | Ratio (drug 3 nM alone (ATRi 0 nM)): 1.00 | Ratio (drug 10 nM + ATRi 3 nM): 1.01 | Ratio (drug 10 nM + ATRi 10 nM): 1.01 | Ratio (drug 10 nM + ATRi 30 nM): 0.91 | Ratio (drug 10 nM alone (ATRi 0 nM)): 1.02 | Ratio (drug 30 nM + ATRi 3 nM): 1.02 | Ratio (drug 30 nM + ATRi 10 nM): 1.00 | Ratio (drug 30 nM + ATRi 30 nM): 0.94 | Ratio (drug 30 nM alone (ATRi 0 nM)): 1.02 | Ratio [36]: 1.02 and 1.04 | Ratio (drug 100 nM + ATRi 10 nM): 1.01 | Ratio (drug 100 nM + ATRi 30 nM): 0.92 | Ratio (drug 100 nM alone (ATRi 0 nM)): 1.03 | Ratio [37]: 0.84 and 0.85 | Ratio (drug 300 nM + ATRi 10 nM): 0.76 | Ratio (drug 300 nM + ATRi 30 nM): 0.58 | Ratio (drug 300 nM alone (ATRi 0 nM)): 0.95 | Ratio [38]: 0.66 and 0.57 | Ratio (drug 1000 nM + ATRi 10 nM): 0.52 | Ratio (drug 1000 nM + ATRi 30 nM): 0.43 | Ratio (drug 1000 nM alone (ATRi 0 nM)): 0.78 | Ratio [39]: 0.46 and 0.41 | Ratio (drug 3000 nM + ATRi 10 nM): 0.43 | Ratio (drug 3000 nM + ATRi 30 nM): 0.42 | Ratio (drug 3000 nM alone (ATRi 0 nM)): 0.60 | sensitization of AsPC-1 cells to the chemodrug by Elimusertib (chemodrug + three sub-EC50 doses of Elimusertib): sensitized | Response (drug 1 nM + ATRi 3 nM): 97.06 | Response (drug 1 nM + ATRi 10 nM): 94.90 | Response (drug 1 nM + ATRi 30 nM): 85.74 | Response (drug 1 nM alone (ATRi 0 nM)): 94.29 | Response (drug 3 nM + ATRi 3 nM): 93.28 | Response (drug 3 nM + ATRi 10 nM): 90.39 | Response (drug 3 nM + ATRi 30 nM): 84.88 | Response (drug 3 nM alone (ATRi 0 nM)): 92.53 | Response (drug 10 nM + ATRi 3 nM): 93.05 | Response (drug 10 nM + ATRi 10 nM): 92.81 | Response (drug 10 nM + ATRi 30 nM): 83.72 | Response (drug 10 nM alone (ATRi 0 nM)): 93.59 | Response (drug 30 nM + ATRi 3 nM): 93.52 | Response (drug 30 nM + ATRi 10 nM): 91.78 | Response (drug 30 nM + ATRi 30 nM): 86.53 | Response (drug 30 nM alone (ATRi 0 nM)): 94.07 | Response [36]: 94.22 and 94.47 | Response (drug 100 nM + ATRi 10 nM): 93.45 | Response (drug 100 nM + ATRi 30 nM): 85.12 | Response (drug 100 nM alone (ATRi 0 nM)): 94.67 | Response [37]: 77.35 and 77.27 | Response (drug 300 nM + ATRi 10 nM): 69.87 | Response (drug 300 nM + ATRi 30 nM): 53.83 | Response (drug 300 nM alone (ATRi 0 nM)): 87.11 | Response [38]: 61.14 and 51.57 | Response (drug 1000 nM + ATRi 10 nM): 47.87 | Response (drug 1000 nM + ATRi 30 nM): 39.31 | Response (drug 1000 nM alone (ATRi 0 nM)): 71.77 | Response [39]: 42.27 and 37.14 | Response (drug 3000 nM + ATRi 10 nM): 39.36 | Response (drug 3000 nM + ATRi 30 nM): 38.38 | Response (drug 3000 nM alone (ATRi 0 nM)): 55.50
